Article PMC10940802 (Computational and Structural Biotechnology Journal, 2024)

Legend:
Assay in all cases: UPLC glycosylation assay, […] nm
Format in all cases: biochemical, Periploca forrestii
Settings in all cases: UDP-glucose as sugar donor; 10 mM PBS pH 8.0, 37 °C
[1] = tested on: PfUGT92A8
[2] = tested on: PfUGT74B4
[3] = tested on: PfUGT74E7
[4] = tested on: PfUGT75C6

| SMILES | Km [1] [µM] | Km [2] [µM] | Km [3] [µM] | Km [4] [µM] |
| --- | --- | --- | --- | --- |
| O=C1CC(O)(c2ccc(O)cc2)Oc2cc(O)cc(O)c21 (centres unmarked) [2-Hydroxynaringenin] | 51.4 | 47.8 |  |  |
| COc1ccc(-c2cc(=O)c3c(O)cc(O)cc3o2)cc1 [Acacetin] |  | 2.23 |  |  |
| O=c1cc(-c2ccc(O)cc2)oc2cc(O)cc(O)c12 [Apigenin] | 148 | 50.2 | 5.97 | 29 |
| O=c1cc(-c2ccc(O)c(O)c2)oc2cc(O)c([C@@H]3O[C@H](CO)[C@@H](O)[C@H](O)[C@H]3O)c(O)c12 [Isoorientin] | 134 | 65.2 |  |  |
| O=c1cc(-c2ccc(O)cc2)oc2cc(O)c([C@@H]3O[C@H](CO)[C@@H](O)[C@H](O)[C@H]3O)c(O)c12 [Isovitexin] | 78.2 | 58.6 |  |  |
| O=c1cc(-c2ccc(O)c(O)c2)oc2cc(O)cc(O)c12 [Luteolin] | 252 | 58.3 | 7.75 | 28.4 |
| O=c1cc(-c2ccc(O)c(O)c2)oc2c([C@@H]3O[C@H](CO)[C@@H](O)[C@H](O)[C@H]3O)c(O)cc(O)c12 [Orientin] | 218 |  |  |  |
| O=C(CCc1ccc(O)cc1)c1c(O)cc(O)cc1O [Phloretin] | 34.7 | 45.6 |  |  |
| O=c1cc(-c2ccc(O)cc2)oc2c([C@@H]3O[C@H](CO)[C@@H](O)[C@H](O)[C@H]3O)c(O)cc(O)c12 [Vitexin] | 94.2 | 307 |  |  |
